Among the data in the NIST ThermoML archive (doi:10.1016/j.jct.2013.11.020) are mass density and refractive index values, retold here.

Numbers after ± are expanded uncertainties.

The conditions of series [1]: 298.15 K; 101.33 kPa; Liquid; Vibrating tube method.
Series [2] in a line: refractive index (Na D-line) (dimensionless). The settings on record: 298.15 K; 101.33 kPa; Liquid; Standard Abbe refractometry.

For the compound `CCCC[n+]1ccn(C)c1.O=S(=O)([N-]S(=O)(=O)C(F)(F)F)C(F)(F)F`, the mass density in series [1] came out at 1436.35 ± 0.61 kg/m3. In addition, the refractive index in series [2] is given as 1.42706 ± 0.00037.
For `CCCn1cc[n+](C)c1.O=S(=O)([N-]S(=O)(=O)C(F)(F)F)C(F)(F)F` the same measures were 1474.44 ± 0.65 kg/m3 and 1.42526 ± 0.00037.
For `CCCCn1cc[n+](C)c1.COS(=O)(=O)[O-]` [1-butyl-3-methylimidazolium methyl sulfate], in that order: 1212.59 ± 0.41 kg/m3 and 1.47792 ± 0.00037.
For `C1=CCCCC1` [cyclohexene] the same measures were 805.69 ± 0.24 kg/m3 and 1.44378 ± 0.00037.
`CCc1ccccc1` [ethylbenzene]: in series [1], the mass density was 862.51 ± 0.13 kg/m3. The refractive index in series [2] is on record as 1.49304 ± 0.00031.
On to `CCCCCC` [hexane], for which the mass density in series [1] is on record as 655.19 ± 0.2 kg/m3. The refractive index in series [2] is reported as 1.37234 ± 0.00033.
For `Cc1ccccc1` [toluene], in that order: 862.17 ± 0.13 kg/m3 and 1.49399 ± 0.00031.
